Laboratory results: patent US10617690B2 (priority 2015, dated 2020)
Where two headings read alike, the source gives them in different places.

Tests used:
[1] = system: arthritis model induced by collagen; conditions: oral, two consecutive weeks
[2] = biological target: T1, JAK3 (Homo sapiens, UniProt P52333); test: In vitro activity test of JAK3 kinase (LANCE Ultra TR-FRET); assay type: biochemical;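 also: recombinant human JAK3 phosphorylating ULight-JAK-1(Tyr1023) peptide at 4 µM ATP, with 1% DMSO, detected by Eu-anti-phosphotyrosine TR-FRET on Envision and converted to percent inhibition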
T1 construct: purchased Life technology
T1 sequence (P52333 1-1124): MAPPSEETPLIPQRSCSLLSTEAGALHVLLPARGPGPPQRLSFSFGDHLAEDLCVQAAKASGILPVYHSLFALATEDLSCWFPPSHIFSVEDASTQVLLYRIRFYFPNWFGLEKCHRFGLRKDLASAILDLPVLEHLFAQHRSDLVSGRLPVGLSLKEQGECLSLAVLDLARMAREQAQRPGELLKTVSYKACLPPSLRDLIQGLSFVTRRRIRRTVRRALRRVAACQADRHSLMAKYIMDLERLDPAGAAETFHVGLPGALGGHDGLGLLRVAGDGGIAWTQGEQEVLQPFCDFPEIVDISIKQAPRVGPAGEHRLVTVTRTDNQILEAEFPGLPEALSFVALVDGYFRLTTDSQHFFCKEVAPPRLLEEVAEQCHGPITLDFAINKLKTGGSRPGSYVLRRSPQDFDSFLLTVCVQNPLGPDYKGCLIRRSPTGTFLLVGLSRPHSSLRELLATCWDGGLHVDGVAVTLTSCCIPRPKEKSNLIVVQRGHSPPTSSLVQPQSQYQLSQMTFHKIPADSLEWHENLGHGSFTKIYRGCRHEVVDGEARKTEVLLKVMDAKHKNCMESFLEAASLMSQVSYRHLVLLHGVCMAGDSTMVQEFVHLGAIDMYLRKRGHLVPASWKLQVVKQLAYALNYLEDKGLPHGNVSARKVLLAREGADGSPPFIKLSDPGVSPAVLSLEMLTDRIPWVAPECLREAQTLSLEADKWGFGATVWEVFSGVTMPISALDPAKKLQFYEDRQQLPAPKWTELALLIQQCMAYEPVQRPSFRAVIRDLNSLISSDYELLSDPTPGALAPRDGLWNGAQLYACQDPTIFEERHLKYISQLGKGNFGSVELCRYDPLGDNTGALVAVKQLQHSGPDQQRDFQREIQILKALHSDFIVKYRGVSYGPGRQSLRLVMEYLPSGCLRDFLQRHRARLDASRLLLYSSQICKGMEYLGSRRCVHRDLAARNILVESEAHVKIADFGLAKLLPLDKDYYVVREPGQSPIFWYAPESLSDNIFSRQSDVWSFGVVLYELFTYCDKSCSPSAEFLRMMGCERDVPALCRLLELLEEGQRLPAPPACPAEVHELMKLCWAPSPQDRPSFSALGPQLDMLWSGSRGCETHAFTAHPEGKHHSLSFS
Description: (§1) Recombinant humanized JAK1, JAK2 and JAK3 protease were all purchased from Life technology. LANCE Ultra ULight™-JAK-1(Tyr1023) peptide and LANCE Eu-W1024 Anti-phosphotyrosine (PT66) were both purchased from PerkinElmer. Envision (PerkinElmer) was used to read a plate.
0.05 nM protein kinase, 50 nM LANCE Ultra ULight™-JAK-1(Tyr1023) peptide, 4 uM ATP, 50 mM HEPES (pH7.5), 10 mM MgCl2, 1 mM EGTA, 2 mM DTT, and 0.01% BRIJ-35.
(§2) The reading was converted into a suppression ratio as follow equation: (%)=(Min−Ratio)/(Max−Min)*100%.

[3] = biological target: JAK2 protein kinase (Homo sapiens, UniProt O60674); test: biochemical; conditions: 12 uM ATP, 60 min;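 also: recombinant human JAK2 with ULight-labelled JAK-1(Tyr1023) peptide substrate, phosphorylation detected by TR-FRET using Eu-labelled anti-phosphotyrosine antibody, 1% DMSO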
Description: as §1, §2

[4] = biological target: JAK1 protein kinase (Homo sapiens, UniProt P23458); test: biochemical; conditions: 38 uM ATP, 90 min
Description: In Vitro Activity Test of Jak1, Jak 2 and Jak 3 Kinase
Recombinant humanized JAK1, JAK2 and JAK3 […] were all purchased from Life technology. LANCE Ultra ULight™-JAK-1(Tyr1023) peptide and LANCE Eu-W1024 Anti-phosphotyrosine (PT66) were both purchased from PerkinElmer. Envision (PerkinElmer) was used to read a plate.
Three dilution of a test compound was prepared, and 11 final concentrations were obtained: 10 uM to 0.17 nM. Each concentration had two repeat wells. The content of DMSO in a detection reaction was 1%.
2 nM JAK1 protein kinase, 50 nM LANCE Ultra ULight™-JAK-1(Tyr1023) peptide, 38 uM ATP, 50 mM HEPES (pH7.5), 10 mM MgCl2, 1 mM EGTA, 2 mM DTT, and 0.01% BRIJ-35. Detection plate was White Proxiplate 384-Plus plate (PerkinElmer), the reaction was conducted for 90 min at room temperature, and reaction system was 10 ul.
10 ul detection reagent was added into the reaction plate, wherein the final concentration of LANCE Eu-W1024 Anti-phosphotyrosine (PT66) was 2 nM, the final concentration of EDTA was 10 mM, incubation was conducted for 60 min at room temperature, and the plate was read by the Envision.
The reading was converted into a suppression ratio as follow equation: (%)=([…])/(Max−Min)*100%. IC50 data was detected by 4 parametric curve fitting (Model 205 in XLFIT5, iDBS), see Table 1.

[5] = Pharmacokinetics (PK) test in mice; assay type: in vivo, male DBA/1 mice; conditions: for AUC(0-inf) / AUC(0-t) / half-life / Vd / Cmax / Tmax / bioavailability: male, DBA/1, mouse, plasma; for half-life: caudal vein injection and gavage; for Vd: read-out: Vdss; for Cmax / Tmax / bioavailability: oral
[6] = Pharmacokinetics (PK) test in rats; assay type: in vivo; conditions: for AUC(0-inf) / AUC(0-t) / half-life / Vd / Cmax / Tmax / bioavailability: rat, plasma; for Vd: intravenous, read-out: Vdss; for Cmax / Tmax / bioavailability: oral
[7] = system: arthritis model induced by adjuvant; test: Pharmacodynamic test of an arthritis model induced by adjuvant on rats; assay type: in vivo, female Lewis rat; conditions: oral; for AUC (%): two consecutive weeks; for arthritis inhibitory activity and dose-effect relationship: 1, 3 and 10 mpk

Chain of JAK1 protein kinase (P23458 whole entry): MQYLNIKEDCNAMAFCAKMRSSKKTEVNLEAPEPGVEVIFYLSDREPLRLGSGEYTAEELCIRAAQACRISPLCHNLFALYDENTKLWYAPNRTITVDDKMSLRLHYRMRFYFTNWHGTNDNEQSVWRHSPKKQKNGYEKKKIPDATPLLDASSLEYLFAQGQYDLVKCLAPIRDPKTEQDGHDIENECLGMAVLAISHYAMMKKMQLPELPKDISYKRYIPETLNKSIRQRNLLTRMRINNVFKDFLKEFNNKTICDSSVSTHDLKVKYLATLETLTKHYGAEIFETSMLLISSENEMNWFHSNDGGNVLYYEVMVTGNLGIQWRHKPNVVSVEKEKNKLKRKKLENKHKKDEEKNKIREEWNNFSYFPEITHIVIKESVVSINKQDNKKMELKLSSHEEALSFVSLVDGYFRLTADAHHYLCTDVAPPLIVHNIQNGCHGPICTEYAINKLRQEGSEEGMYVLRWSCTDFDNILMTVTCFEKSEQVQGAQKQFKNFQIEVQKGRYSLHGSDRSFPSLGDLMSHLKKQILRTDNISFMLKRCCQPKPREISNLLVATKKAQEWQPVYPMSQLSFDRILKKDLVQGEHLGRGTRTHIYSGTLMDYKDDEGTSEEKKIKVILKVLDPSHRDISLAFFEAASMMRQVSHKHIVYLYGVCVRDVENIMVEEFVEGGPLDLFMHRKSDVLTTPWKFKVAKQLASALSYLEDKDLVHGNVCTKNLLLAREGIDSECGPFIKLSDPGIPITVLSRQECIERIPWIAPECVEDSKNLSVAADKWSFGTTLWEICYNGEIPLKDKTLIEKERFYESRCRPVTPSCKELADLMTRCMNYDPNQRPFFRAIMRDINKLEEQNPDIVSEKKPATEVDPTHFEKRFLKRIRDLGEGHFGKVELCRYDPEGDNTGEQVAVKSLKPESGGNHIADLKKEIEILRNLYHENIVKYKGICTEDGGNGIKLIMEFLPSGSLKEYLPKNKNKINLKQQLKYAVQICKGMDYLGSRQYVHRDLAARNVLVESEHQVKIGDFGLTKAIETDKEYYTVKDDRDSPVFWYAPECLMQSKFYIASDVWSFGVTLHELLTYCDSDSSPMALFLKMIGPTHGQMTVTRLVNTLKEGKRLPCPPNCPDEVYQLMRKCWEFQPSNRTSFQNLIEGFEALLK
Chain of JAK2 protein kinase (O60674 whole entry): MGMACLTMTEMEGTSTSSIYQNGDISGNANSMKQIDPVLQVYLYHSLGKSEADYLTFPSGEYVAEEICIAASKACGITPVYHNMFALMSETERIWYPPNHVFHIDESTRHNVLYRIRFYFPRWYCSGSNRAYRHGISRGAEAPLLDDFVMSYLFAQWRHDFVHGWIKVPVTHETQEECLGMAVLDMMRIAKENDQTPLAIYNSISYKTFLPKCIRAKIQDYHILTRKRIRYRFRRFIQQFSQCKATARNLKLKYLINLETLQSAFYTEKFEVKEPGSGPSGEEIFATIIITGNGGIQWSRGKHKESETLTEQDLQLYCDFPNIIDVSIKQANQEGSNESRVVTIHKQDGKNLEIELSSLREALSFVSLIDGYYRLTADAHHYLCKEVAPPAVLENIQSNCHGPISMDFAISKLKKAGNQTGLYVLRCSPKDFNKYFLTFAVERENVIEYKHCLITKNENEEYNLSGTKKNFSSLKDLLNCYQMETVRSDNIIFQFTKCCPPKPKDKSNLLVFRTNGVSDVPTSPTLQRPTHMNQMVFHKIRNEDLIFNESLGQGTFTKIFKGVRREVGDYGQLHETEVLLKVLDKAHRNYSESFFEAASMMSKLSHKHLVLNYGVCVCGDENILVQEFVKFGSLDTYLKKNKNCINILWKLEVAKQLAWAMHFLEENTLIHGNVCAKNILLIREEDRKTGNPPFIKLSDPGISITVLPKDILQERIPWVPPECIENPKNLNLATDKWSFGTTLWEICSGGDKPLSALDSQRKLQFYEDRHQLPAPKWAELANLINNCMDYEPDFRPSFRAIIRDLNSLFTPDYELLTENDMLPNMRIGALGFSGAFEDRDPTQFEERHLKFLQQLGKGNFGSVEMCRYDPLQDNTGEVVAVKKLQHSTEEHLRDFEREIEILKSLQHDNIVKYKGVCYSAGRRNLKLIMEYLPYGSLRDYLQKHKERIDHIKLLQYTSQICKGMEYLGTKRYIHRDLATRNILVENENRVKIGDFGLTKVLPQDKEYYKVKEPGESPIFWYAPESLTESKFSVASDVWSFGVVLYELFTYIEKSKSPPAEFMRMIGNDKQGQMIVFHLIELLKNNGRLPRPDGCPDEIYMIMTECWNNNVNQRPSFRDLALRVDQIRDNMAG

Row | Structure (SMILES) | AUC (%) ([1]; 15 mg/kg) | IC50 [2] [nM] | IC50 [3] [nM] | IC50 [4] [nM] | C1 [5] [mL/min/kg] | oral bioavailability and exposed quantity [5] | AUC(0-inf) [5] [µM·h] | AUC(0-t) [5] [µM·h] | Vd ([5]; intravenous) [L/kg] | Cmax [5] [nM] | Tmax [5] [min] | bioavailability [5] [%] | C1 [6] [mL/min/kg] | oral bioavailability and exposed quantity [6] | AUC(0-inf) [6] [µM·h] | AUC(0-t) [6] [µM·h] | half-life [6] [min] | Vd [6] [L/kg] | Cmax [6] [nM] | AUC (%) ([7]; 3 mg/kg) | also measured
1 | CN(c1ncnc2[nH]ccc12)N1CCCC(C(=O)NCC(F)(F)F)C1 (single isomer, unassigned) [WX06, (S or R)-1-[methyl(7H pyrrolo[2,3-d]pyrimidin-4-yl)amino]-N-(2,2,2-trifluoroethyl)piperidyl-3-formamide] | 30.3 | > 1000 | > 1000 | 100 to 1000 | – | – | – | – | – | – | – | – | – | – | – | – | – | – | – | – | –
2 | CN(c1ncnc2[nH]ccc12)N1CCC[C@@H](C(=O)NCC(F)(F)F)C1 (single isomer, unassigned) [WX05, (R or S)-1-[methyl(7H pyrrolo[2,3-d]pyrimidin-4-yl)amino]-N-(2,2,2-trifluoroethyl)piperidyl-3-formamide] | 31 | < 10 | 10 to 100 | < 10 | 57.2 | excellent good oral bioavailability and higher exposed quantity | 0.667 | 0.664 | 0.959 | 1230 | 15 | 27 | 13.1 | excellent good oral bioavailability and higher exposed quantity | 11.5 | 11.2 | 91.8 | 1.49 | 3690 | – | half-life ([5]; intravenous): 30.9 min; Tmax [6]: 60 min; bioavailability [6]: 64.4%
3 | CN(c1ncnc2[nH]ccc12)N1CCC[C@@H](C(=O)NCC#N)C1 (single isomer, unassigned) [WX08, (R or S)—N-(cyanomethyl-1-[methyl(7H-pyrrolo[2,3-d]pyrimidin-4-yl)amino]piperidyl)-3-formamide] | – | < 10 | < 10 | < 10 | 26.7 | excellent good oral bioavailability and higher exposed quantity | 3.03 | 3 | 0.619 | 2440 | 15 | 50.7 | 27.1 | excellent good oral bioavailability and higher exposed quantity | 6.5 | 6.36 | 56.9 | 1.51 | 2460 | 33.4 | half-life ([5]; po): 37.4 min; AUC (%) ([7]; 1 mg/kg): 13.6%; AUC (%) ([7]; 10 mg/kg): 49.2%; arthritis inhibitory activity and dose-effect relationship [7]: good dose-effect relationship and generated arthritis inhibitory activity that was more effective than Filgotinib; Tmax [6]: 30 min; bioavailability [6]: 61%
4 | CN(c1ncnc2[nH]ccc12)N1CCCC(C(=O)NCC#N)C1 (stereo not shown) [WX07, N-(cyanomethyl)-1-[methyl(7H-pyrrolo[2,3-d]pyrimidin-4-yl)amino]piperidyl-3-formamide] | 52.2 | < 10 | 10 to 100 | < 10 | 21.3 | excellent good oral bioavailability and higher exposed quantity | 2.48 | 2.33 | 0.846 | 2290 | 30 | 32.9 | 31.8 | excellent good oral bioavailability and higher exposed quantity | 5.75 | 5.68 | 70.8 | 1.76 | 3250 | 20.4 | half-life ([5]; po): 81 min; AUC (%) ([7]; 1 mg/kg): 1.5%; AUC (%) ([7]; 10 mg/kg): 44.7%; arthritis inhibitory activity and dose-effect relationship [7]: good dose-effect relationship and arthritis inhibitory activity equivalent to Tofacitinib; Tmax [6]: 20 min; bioavailability [6]: 68.6%
5 | CN(c1ncnc2[nH]ccc12)N1CCCC(C(=O)NCC(F)(F)F)C1 (stereo not shown) [WX04] | 29 | 10 to 100 | 10 to 100 | < 10 | – | – | – | – | – | – | – | – | – | – | – | – | – | – | – | – | AUC (%) ([1]; 30 mg/kg): 27%
6 | O=C(Nc1nc2cccc(-c3ccc(CN4CCS(=O)(=O)CC4)cc3)n2n1)C1CC1 [Filgotinib, reference compound] | 39.9 | – | – | – | – | – | – | – | – | – | – | – | – | – | – | – | – | – | – | 7.9 | –
7 | C[C@@H]1CCN(C(=O)CC#N)C[C@@H]1N(C)c1ncnc2[nH]ccc12 [Tofacitinib, reference compound] | 34 | – | – | – | – | – | – | – | – | – | – | – | – | – | – | – | – | – | – | 41.6 | AUC (%) ([7]; 1 mg/kg): 19.8%; AUC (%) ([7]; 10 mg/kg): 49.2%
